Test results from paper PMC8179358, “An explicitly designed paratope of amyloid-β prevents neuronal apoptosis in vitro and hippocampal damage in rat brain” (Chemical Science, 2020).

Assays:
Format in all cases: cell-based, human
SH-SY5Y cells [1] = assay: Intracellular ROS (DCFH-DA); conditions: Aβ40 10 μM, 24 h
Source text: (§1) Condensed or fragmented nuclear bodies characterize the distinctive nature of apoptotic cells. […] Dyshomeostasis of Ca^2+ is also responsible for the increased production of Aβ peptides, by which a degenerative feed-forward cycle is activated, resulting in accelerated apoptosis, synaptic dysfunction, and memory impairment.[49]
The release of cytosolic enzyme lactate dehydrogenase (LDH) into the culture medium indicates cell death due to the disruption of membrane integrity. Cell deathwas assessed by measuring LDH release in the culture medium by photocolorimetric kit according to the manufacturer’s protocol (Abcam, Cambridge, MA, USA). […]
Next, 50 µl culture supernatant was collected from each well and added to an assay mixture that was prepared by adding an equal amount of LDH substrate, co-factors, and dye solutions and incubated in the dark for 40mins at 37°C. […] Absorbance was measured at 490 nm with a reference filter of 660nm. […]
Generation of intracellular reactive oxygen species was measured by a spectrofluorimetric method using peroxide sensitive fluorescent probe 2′,7′-Dichlorofluorescin diacetate (DCFH-DA).11 In brief, SH-SY5Y […]
or both for 24h. […] Cells were then washed twice with PBS, and fluorescent intensity was measured by using a fluorescence microplate reader (Bio Rad, CA, USA) with an excitation filter of 490 nm and an emission filter of 520 nm.

cleaved caspase-3 = assay: Western blot, cleaved caspase-3
Procedure: e. Measurement of intracellular calcium (Ca 2+)
Ca2+sensitive dye Fura-2AM was used to measure free intracellular Ca2+level in SH-SY5Y cell suspension by the previously described method.12 Following treatment with the respective drug, Fura-2 AM (Cayman, USA) at a concentration of 5 µM was added to the culture medium and incubated at 37°C for 45 min. Next, Krebs-Ringer-HEPES (KRH) buffer (135mM NaCl, 5mM KCl, 1mM MgSO4, 0.4mM KH2PO4, 1mM CaCl2, 5.5mM glucose, 20mM HEPES, pH 7.4) was used to wash each plate twice containing (1×10^6cells). Fluorescent microplate reader (FLX 800, Biotek, USA) was used to measure the fluorescence intensity with an excitation and emission spectra of […], respectively. Results are Mean±SEM of quadruplicate measurements from three separate experiments and expressed in the increase in percent relative fluorescent unit (RFU) relative to the baseline reading.
Western blot analysis was performed to measure Bax, Bcl-2, cleaved Caspase 9 and cleaved Caspase 3, pro and anti-apoptotic proteins expression. About 5× 10^6 cells were washed with PBS twice following […]
overnight. […] The optical density (OD) value of each band was analyzed by the electrophoresis image analysis system (Smartview 2001, S/N: SV-0002202, Japan) and normalized against the corresponding β-actin band. […]

SH-SY5Y cells [2] = assay: Hoechst 33258 staining of apoptotic cells; conditions: Aβ40 10 μM, 24 h
Source text: as §1

Aβ40: commercially available Aβ40 peptide
ROS marker intensity, Aβ40 alone (SH-SY5Y cells [1]): increased in the presence of Aβ40 compared to untreated cells | caspase-3 activation by Aβ40 alone (cleaved caspase-3): leads to activation of caspase-3 directed DNA breakage, nuclear chromatin condensation, and neurocellular apoptosis | apoptotic cells, Aβ40 alone (SH-SY5Y cells [2]): A significant number of apoptotic cells were observed
